{
  "source": "patent US20220315534A1",
  "about": "“BETA ADRENERGIC AGONIST AND METHODS OF USING THE SAME” (Curasen Therapeutics, Inc., priority 2019, published 2022)",
  "key": {"[1]": {"target": "T1, β1-adrenergic receptor (B1-AR) (Homo sapiens, UniProt P08588)", "T1 construct": "expressed in transfected cells", "T1 sequence (P08588 whole entry)": "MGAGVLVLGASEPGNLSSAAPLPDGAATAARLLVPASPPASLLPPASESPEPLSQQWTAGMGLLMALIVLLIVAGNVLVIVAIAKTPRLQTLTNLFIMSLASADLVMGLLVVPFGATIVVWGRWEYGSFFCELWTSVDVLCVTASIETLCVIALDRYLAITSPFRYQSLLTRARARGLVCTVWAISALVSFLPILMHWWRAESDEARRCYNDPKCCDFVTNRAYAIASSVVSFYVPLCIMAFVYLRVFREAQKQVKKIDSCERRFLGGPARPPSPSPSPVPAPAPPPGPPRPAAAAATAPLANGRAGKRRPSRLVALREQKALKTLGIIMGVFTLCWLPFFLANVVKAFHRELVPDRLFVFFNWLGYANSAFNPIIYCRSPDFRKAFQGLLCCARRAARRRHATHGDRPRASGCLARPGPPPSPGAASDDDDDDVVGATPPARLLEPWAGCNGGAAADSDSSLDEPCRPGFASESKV", "assay": "cAMP Gs dynamic HTRF assay, cells expressing β1-adrenergic receptor", "format": "cell-based", "details": "CHO-K1 (HitHunter) cells; read-out: Average pEC50 [Receptor subtype: B1-AR; Cell type: CHO-K1 (HitHunter)] (converted)", "description": "(§1) cAMP homogeneous time-resolved fluorescence (HTRF): experimental methods. Compound efficacy is determined using the cAMP Gs dynamic HTRF assay (Cisbio, catalog #62AM4PEC) largely following the manufacturer's instructions, also detailed below.\n(§2) Standard serial dilution curves are 10-point, 5-fold dilutions starting from a highest concentration of 10 μM. […] Assay plates are centrifuged at 500×g for 10 seconds. Compounds and IBMX are prepared at 2× final dose to compensate for addition of cells.\n(§3) Cell preparation: 1× stimulation buffer, washing PBS (Dulbecco's phosphate-buffered saline, —Mg —Ca; Caisson Labs, catalog #PBL01), assay PBS (Dulbecco's phosphate-buffered saline, +Mg, +Ca; Caisson Labs, catalog #PBL02) and Versene (0.02% EDTA disodium salt solution in PBS without calcium or magnesium; Caisson Labs, catalog #EDL01) are pre-warmed to 37° C. Cells expressing beta-adrenergic receptor were washed in washing PBS to remove growth medium and then released from the surface by incubating with Versene for 5-10 minutes at 37° C. Cells are harvested using assay PBS, counted manually by hemocytometer or by an automated cell counter, pelleted by centrifugation (200×g, 5 minutes) and resuspended in 37° C. 1× stimulation buffer to a final density of […]. 5 μL of the suspended cell solution (7500 cell total) are added to all wells of the 384 well assay plate, the assay plate was covered with an Axygen® plate seal (Corning PCR-SP) and incubated in a humidified 37° C. environment supplemented with 5% CO2 for 30 minutes.\n(§4) HTRF reagent addition, reading and data analysis: After 30 minutes of cell stimulation with test compound, the assay plates are centrifuged at 500×g for 10 seconds, and incubation was stopped with the addition of 5 μL cAMP-D2 acceptor, diluted 1:21 in detection and lysis buffer 2 (Cisbio 62CL2FDF) was added to all cells. Subsequently, 5 μL Anti-cAMP-Eu Donor, diluted 1:21 in detection and lysis buffer 2, was added to cells. Plates were sealed and reactions gently ‘vortexed’ at 900 rpm on a Heidolph Titramax 1000 for at least 30 minutes at room temperature. Plates are centrifuged again at 500×g for 10 seconds, and HTRF was measured using a Tecan Spark plate reader at 50 flashes per well. […] Potency estimates (EC50 and pEC50) are derived from the four-parameter nonlinear regression of the concentration-effect curve and an estimate of relative efficacy is determined by comparing the magnitude of the test compound HTRF signal window (min-max dose) with the signal window of the full agonist control, isoproterenol."}, "[2]": {"target": "T2, β2-adrenergic receptor (B2-AR) (Homo sapiens, UniProt P07550)", "T2 construct": "expressed in transfected cells", "T2 sequence (P07550 whole entry)": "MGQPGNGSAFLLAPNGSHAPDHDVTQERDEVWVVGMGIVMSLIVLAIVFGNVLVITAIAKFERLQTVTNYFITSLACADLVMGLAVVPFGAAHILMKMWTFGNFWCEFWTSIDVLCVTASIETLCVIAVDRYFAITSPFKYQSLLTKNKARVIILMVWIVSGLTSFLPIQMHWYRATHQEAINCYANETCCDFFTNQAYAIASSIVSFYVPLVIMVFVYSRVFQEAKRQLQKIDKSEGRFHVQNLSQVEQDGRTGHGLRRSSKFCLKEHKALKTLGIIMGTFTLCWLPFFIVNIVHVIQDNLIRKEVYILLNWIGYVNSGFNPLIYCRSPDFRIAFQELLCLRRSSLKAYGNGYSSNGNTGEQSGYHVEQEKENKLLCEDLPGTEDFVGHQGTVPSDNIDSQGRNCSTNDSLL", "assay": "cAMP Gs dynamic HTRF assay, cells expressing β2-adrenergic receptor", "format": "cell-based", "details": "CHO-K1 (HitHunter) cells; read-out: Average pEC50 [Receptor subtype: B2-AR; Cell type: CHO-K1 (HitHunter)] (converted)", "description": "as §1, §2, §3, §4"}},
  "data": [
    {"smiles": "CC(C)(C)NC[C@H](O)c1ccc2c(c1)C1(CC1)CN2", "note": "[Compound 04-123]", "values": [
      {"measurement": "EC50", "setting": "[1]", "result": "> 1000", "unit": "nM"},
      {"measurement": "EC50", "setting": "[2]", "result": "100 to 1000", "unit": "nM"}
    ]},
    {"smiles": "CC(C)(C)NC[C@H](O)c1cc(Cl)c2[nH]cnc2c1", "note": "[Compound 04-117]", "values": [
      {"measurement": "EC50", "setting": "[1]", "result": "100 to 1000", "unit": "nM"},
      {"measurement": "EC50", "setting": "[2]", "result": "< 10", "unit": "nM"}
    ]},
    {"smiles": "CC(C)(C)NC[C@H](O)c1cccc2[nH]ccc12", "note": "[Compound 04-105]", "values": [
      {"measurement": "EC50", "setting": "[1]", "result": "> 1000", "unit": "nM"},
      {"measurement": "EC50", "setting": "[2]", "result": "> 1000", "unit": "nM"}
    ]},
    {"smiles": "CC(C)(C)NC[C@H](O)c1ccc2ncccc2c1", "note": "[Compound 04-38]", "values": [
      {"measurement": "EC50", "setting": "[1]", "result": "100 to 1000", "unit": "nM"},
      {"measurement": "EC50", "setting": "[2]", "result": "< 10", "unit": "nM"}
    ]},
    {"smiles": "CC(C)(C)NC[C@H](O)c1cccc2[nH]nc(F)c12", "note": "[Compound 04-113]", "values": [
      {"measurement": "EC50", "setting": "[1]", "result": "< 10", "unit": "nM"},
      {"measurement": "EC50", "setting": "[2]", "result": "< 10", "unit": "nM"}
    ]},
    {"smiles": "CC(C)NC[C@H](O)c1cc(F)cc2[nH]ncc12", "note": "[Compound 04-149]", "values": [
      {"measurement": "EC50", "setting": "[1]", "result": "< 10", "unit": "nM"},
      {"measurement": "EC50", "setting": "[2]", "result": "< 10", "unit": "nM"}
    ]},
    {"smiles": "CC(C)(C)NC[C@H](O)c1ccc2c(c1)[nH]c1ncccc12", "note": "[Compound 04-128]", "values": [
      {"measurement": "EC50", "setting": "[1]", "result": "> 1000", "unit": "nM"},
      {"measurement": "EC50", "setting": "[2]", "result": "100 to 1000", "unit": "nM"}
    ]},
    {"smiles": "CC(C)(C)NC[C@H](O)c1ccc2ccc(C(F)(F)F)cc2n1", "note": "[Compound 04-36]", "values": [
      {"measurement": "EC50", "setting": "[1]", "result": "< 10", "unit": "nM"},
      {"measurement": "EC50", "setting": "[2]", "result": "< 10", "unit": "nM"}
    ]},
    {"smiles": "CC(C)(C)NC[C@@H](O)c1ccc(C(F)(F)F)c2cccnc12", "note": "[Compound 04-81]", "values": [
      {"measurement": "EC50", "setting": "[1]", "result": "100 to 1000", "unit": "nM"},
      {"measurement": "EC50", "setting": "[2]", "result": "100 to 1000", "unit": "nM"}
    ]},
    {"smiles": "CC(C)(C)NC[C@@H](O)c1ccc2ccc(C(F)(F)F)cc2n1", "note": "[Compound 04-136]", "values": [
      {"measurement": "EC50", "setting": "[1]", "result": "> 1000", "unit": "nM"},
      {"measurement": "EC50", "setting": "[2]", "result": "100 to 1000", "unit": "nM"}
    ]},
    {"smiles": "CC(C)(C)NC[C@H](O)c1nccc2[nH]ncc12", "note": "[Compound 04-144, (S)-2-(tert-butylamino)-1-(1H-pyrazolo[4,3-c]pyridin-4-yl)ethan-1-ol]", "values": [
      {"measurement": "EC50", "setting": "[1]", "result": "> 1000", "unit": "nM"},
      {"measurement": "EC50", "setting": "[2]", "result": "> 1000", "unit": "nM"}
    ]},
    {"smiles": "Cc1cc(C(O)CNC(C)(C)C)nnc1N", "note": "(stereo not drawn) [Compound 02-3]", "values": [
      {"measurement": "EC50", "setting": "[1]", "result": "> 1000", "unit": "nM"},
      {"measurement": "EC50", "setting": "[2]", "result": "100 to 1000", "unit": "nM"}
    ]},
    {"smiles": "CC(C)(C)NC[C@H](O)c1cccc2[nH]ncc12", "note": "[Compound 04-25]", "values": [
      {"measurement": "EC50", "setting": "[1]", "result": "< 10", "unit": "nM"},
      {"measurement": "EC50", "setting": "[2]", "result": "< 10", "unit": "nM"}
    ]},
    {"smiles": "CC(C)(C)NC[C@H](O)c1c(F)ccc2cccnc12", "note": "[Compound 04-90]", "values": [
      {"measurement": "EC50", "setting": "[1]", "result": "100 to 1000", "unit": "nM"},
      {"measurement": "EC50", "setting": "[2]", "result": "> 1000", "unit": "nM"}
    ]},
    {"smiles": "Cc1cc([C@@H](O)CNC(C)(C)C)cc2nc[nH]c12", "note": "[Compound 04-155]", "values": [
      {"measurement": "EC50", "setting": "[1]", "result": "> 1000", "unit": "nM"},
      {"measurement": "EC50", "setting": "[2]", "result": "100 to 1000", "unit": "nM"}
    ]}
  ]
}
